Assay results published in US20180238860A1, “INDIVIDUAL METHOD PREDICTIVE OF THE DNA-BREAKING GENOTOXIC EFFECTS OF CHEMICAL OR BIOCHEMICAL AGENTS” (priority 2015, published 2018).

Tests used:
[1] = test system: pH2AX nuclear foci (DNA double-strand breaks); test: Single toxicity scale: reference concentration Cref and risk group prediction from NpH2AX(24 h); format: cell-based, human; settings: for Reference concentration Cref: NpH2AX(24 h) < 2; for Prediction based on algorithm: concentration above which “Group III” risk: NpH2AX(24 h) > 8
Description: (i) if the reference concentration has not previously been determined by the chemical or biochemical agent to be studied, a cell sample is prepared by dispersion and/or amplification of so-called reference cells (sensitivity group I); a plurality of concentrations within a broad concentration range of said breaking agent (said concentration range ranging for example from nM to mM) is applied for a predetermined period of time (preferably 24 hours) on this cell sample; pH2AX immunofluorescence is performed with DAPI counterstaining which also enables on the same cell sample the analysis of micronuclei for all the concentrations applied.
(ii) Either the mean number of nuclear foci observed with the marker pH2AX at the observation times t and at the concentration C (this mean number being referred to as NpH2AX(t, C)), or the mean number of micronuclei per 100 cells at the observation times t and at the concentration C (this mean number being referred to as NMN(t, C)), or the standard error a corresponding to the error committed on these respective measurements which must be performed on at least 50 nuclei once (Gaussian standard error) or 3 independent experiments of 50 nuclei (standard error of the mean).
(iii) The so-called reference concentration Cref is the concentration giving:
NpH2AX(24 h,Cref)+2σ=2 or indeed NMN(24 h,Cref)+2σ=2%;
If for the cell sample NpH2AX(24 h, Cref)<=2 or NMN(24 h, Cref)<=0.5%, preferably NMN(24 h, Cref)<=1% or even more preferentially NMN(24 h, Cref)<=2%, then the genotoxic risk is considered to be low or described as “Group I”
The experimental data presented in table 4 above were used to determine the reference concentration Cref particularly for Pb(NO3)2 (Cref<1 μM) and CdCl2 (Cref=10 μM).
Table 5 presents numerical examples of correspondence between the single toxicity scale according to the invention and the corresponding clinical signs.

[2] = test system: humans exposed; settings: cited from earlier work
[3] = test system: HMEC cells; test: pH2AX foci 24 h after contacting, Table 4 lower part (HMEC endothelial cells); format: cell-based, human; settings: line cell blank (below Hasp), 24 hours after contacting
In short: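 Cells on glass coverslips exposed at 37° C to the DNA-breaking agent at concentration C; unexposed coverslips give spontaneous level. After 24 h, fixed in 3% paraformaldehyde/2% sucrose, permeabilized, stained with anti-pH2AX (1:800) and FITC/TRITC secondaries plus DAPI; mean nuclear foci counted by immunofluorescence on at least 50 G0/G1 cells.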

[4] = test system: HMEC cells; test: Micronuclei per 100 cells 24 h after contacting, Table 4 lower part (HMEC); format: cell-based, human; settings: line cell blank (below Hasp)
In short: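 Patient-derived cell lines, non-transformed, grown on coverslips at 37 °C and exposed to DNA-breaking agents at various concentrations alongside untreated controls. After 24 h, cells fixed in paraformaldehyde/sucrose, permeabilized, and counterstained with DAPI; micronuclei counted as mean per 100 cells.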

[5] = test system: 1BR3 (control cells); test: pH2AX foci immunofluorescence 24 h after contacting, 1BR3 control fibroblasts; format: cell-based, human; settings: for pH2AX(24) + 2xSEM / pH2AX(24): 1BR3; for pH2AX(24) + 2xSEM: 24 hours; for pH2AX(24): 24 hours after contacting
Description: (§1) In one embodiment, on receipt, the tissue sample (typically the biopsy) is established in the form of an amplifiable cell line without a viral or chemical transformation agent according to an ancillary procedure well known to culture laboratories, as underlined by the publication of Elkind et al. “The radiobiology of cultured mammalian cell”, Gordon and Breach (1967). Once the number of cells is sufficient (typically after 1 to 3 weeks), the first experiments are carried out using the process according to the invention. A cell sample is prepared: The cells are inoculated on glass coverslips in Petri dishes. A portion of these coverslips are contaminated with metals or pesticides or any other DNA-breaking chemical or biochemical agent at different concentrations. A further portion is not contaminated; it represents the spontaneous state. During contamination, the cells remain in the culture incubator at 37° C.
(§2) For the contaminated cells, characteristics are acquired corresponding to the state after an incubation time with the DNA-breaking chemical or biochemical agent. Said characteristics are represented by foci corresponding to the marker pH2AX. The cells on glass coverslips are then fixed, lysed and hybridized. The following procedure, known per se (Bodgi et al, “A single formula to describe radiation-induced protein relocalization: towards a mathematical definition of individual radiosensitivity”, J Theor Biol. 21 p 333:135-45.2013):
(§3) the cells are fixed in 3% paraformaldehyde and 2% sucrose for 15 minutes at ambient temperature and permeabilized in 20 mM HEPES buffer solution (4-(2-hydroxyethyl)-1-piperazine ethane sulfonic acid) at pH 7.4, 50 mM NaCl, 3 mM MgCl2, 300 mM sucrose, 0.5% Triton X-100 (a non-ionic surfactant having the formula t-Oct-C6H4-(OCH2CH2)×OH where x=9-10, CAS No. 9002-93-1, supplied for example by Sigma Aldrich) for 3 minutes. The glass coverslips are then washed in phosphate buffer saline (known as the acronym PBS) before immunological staining. The incubation took place for 40 min at 37° C. in PBS supplemented with 2% bovine serum albumin (known as the acronym BSA or fraction V, supplied for example by Sigma Aldrich) and was followed by a wash with PBS. Anti-pH2AX primary antibodies are used at a concentration of 1:800. The incubations with anti-mouse FITC or anti-rabbit TRITC secondary antibodies (1:100, supplied by Sigma Aldrich) were performed at 37° C. in 2% BSA for 20 minutes. Glass coverslips were treated with Vectashield™ containing DAPI (4,6-Diamidino-2-phenylindole) to label the nucleus. Staining with DAPI also makes it possible, indirectly, to determine the number of cells in phase G1 (nuclei with homogenous DAPI staining), in phase S (nuclei with numerous pH2AX foci), in phase G2 (nuclei with heterogeneous DAPI staining) and metaphases (visible chromosomes).
(§4) The results are acquired using these coverslips on an immunofluorescence microscope (Olympus model for example). The reading may be direct (typically by counting the foci on at least 50 cells in G0/G1 for each point) or using dedicated image analysis software, or on an automated microscope; preferably the software or automated microscope methods are calibrated with manual determinations.
(§5) Commercial 1BR3 and 149 BR control fibroblasts were amplified according to the recommendations of the supplier (SIGMA-ALDRICH) until the number of cells sought was obtained. After obtaining a sufficient number of cells (generally after one to 3 weeks), the first experiments were conducted using the process according to the invention. The cells were inoculated on glass coverslips in Petri dishes.
(§6) The acquisition of the results was carried out using these coverslips on an immunofluorescence microscope (Olympus model). The reading was performed directly by counting the foci obtained with the marker pH2AX on at least 50 cells in G0/G1 for each point or using dedicated image analysis software (imageJ). […]

[6] = test system: 149BR (control cells); test: pH2AX foci immunofluorescence 24 h after contacting, 149BR control fibroblasts; format: cell-based, human; settings: for pH2AX(24) + 2xSEM / pH2AX(24): 149BR; for pH2AX(24) + 2xSEM: 24 hours; for pH2AX(24): 24 hours after contacting
Description: as §1, §2, §3, §4, §5, §6

[7] = test system: 04PSL cells; test: pH2AX foci immunofluorescence 24 h after contacting, 04PSL patient skin cell line; format: cell-based, human; settings: for pH2AX: 24 hours after contacting (Table 3); for pH2AX(24) + 2xSEM: 24 hours; for pH2AX(24 h): 24 hours after contacting (Table 1)
Description: as §3
A skin cell sample from a patient was sampled by biopsy via the “skin punch” method known to those skilled in the art. The cell sample was then placed in DMEM medium+20% sterile fetal calf serum. The cell sample was then transferred without delay to a specialized laboratory, so that the sample remained not more than 38 hours at ambient temperature.
On receipt, the cell sample from the biopsy was established in the form of an amplifiable 04PSL cell line according to a procedure well known to culture laboratories and those skilled in the art: using particularly the trypsin dispersion, the cells are once again diluted in replenished medium and so on until the number of cells sought is obtained. […] The 04PSL line cells were inoculated on glass coverslips in Petri dishes.
The acquisition of the results was carried out using these coverslips on an immunofluorescence microscope (Olympus model). The reading was performed directly by counting the foci obtained with the marker pH2AX on at least 50 cells in G0/G1 for each point or using dedicated image analysis software (imageJ).
In order to obtain results of sufficient statistical reliability to serve as a basis for diagnosis, 3 independent series of experiments were performed.
(§7) In tables 3 and 4, “pH2AX” corresponds to the mean number of nuclear foci obtained with the marker pH2AX, 24 hours after contacting the cell sample with the chemical agent at the concentration C (NpH2AX(24 h, C)), and where “Micronuclei” corresponds to the mean number of micronuclei observed per 100 cells 24 hours after contacting the cell sample with the chemical agent at the concentration C(NMN(24 h, C)).

[8] = test system: 04PSL cells; test: Micronuclei per 100 cells (DAPI) 24 h after contacting, 04PSL; format: cell-based, human
Description: as §1, §3
Counterstaining with DAPI (a DNA marker known to those skilled in the art) makes it possible to locate the nucleus to situate the cytoplasmic or nuclear location to quantify the micronuclei, which are complementary cell markers to the data on the foci.
The tables hereinafter summarize the results of numerous experiments which were carried out as described in the “Detailed description” section above.
as §7

[Na+].[Na+].[O]=[Cr](=[O])([O-])[O-] [Chromium, Na2CrO4]
Reference concentration Cref [1]: 0.003 µM | Prediction based on algorithm: concentration above which “Group III” risk [1]: predicted above 30 nM | Cases of poisoning, concentration in tap water (estimated) ([2]; Hinkley USA): concentration in tap water was estimated at 23 Nm | Cases of poisoning, concentration in well water ([2]; Hinkley USA): 1.19 g/L | Cases of poisoning, concentration in well water, equivalent ([2]; Hinkley USA): 4.6 mM

O=[N+]([O-])[O-].O=[N+]([O-])[O-].[Pb+2] [Pb(NO3)2]
pH2AX ([3]; 10 μM): 4 foci | pH2AX ([3]; 30 μM): 7.5 foci | pH2AX ([3]; 100 μM): 15 foci | pH2AX ([3]; 300 μM): 21 foci | Micronuclei ([4]; 10 μM): 0 per 100 cells | Micronuclei ([4]; 30 μM): 7 per 100 cells | Micronuclei ([4]; 100 μM): 12 per 100 cells | Micronuclei ([4]; 300 μM): 20 per 100 cells | Micronuclei ([4]; 1000 μM): 10 per 100 cells | Reference concentration Cref ([1]; determined from data of table 4): < 1 µM | Reference concentration Cref ([1]; determined from data of table 4, listed as Lead): <1 µM | Prediction based on algorithm: concentration above which “Group III” risk [1]: > 30 µM | Onset of signs of saturnism, concentration in blood ([2]; clinical effects observed): Onset of signs of saturnism above 100 μg/l of μg/l of blood | Onset of signs of saturnism, corresponding concentration ([2]; clinical effects observed, corresponding to 100 μg/l of blood): blood corresponding to approximately 2 μM

O=C(O)CNCP(=O)(O)O [glyphosate]
pH2AX(24) + 2xSEM ([5]; glyphosate 3 μM): 1.856 foci | pH2AX(24) ([5]; glyphosate 3 μM): 1.6 foci | pH2AX(24) + 2xSEM ([5]; glyphosate 10 μM): 1.856 foci | pH2AX(24) ([5]; glyphosate 10 μM): 1.6 foci | pH2AX(24) + 2xSEM ([5]; glyphosate 30 μM): 2.204 foci | pH2AX(24) ([5]; glyphosate 30 μM): 1.9 foci | pH2AX(24) + 2xSEM ([5]; glyphosate 100 μM): 2.32 foci | pH2AX(24) ([5]; glyphosate 100 μM): 2 foci | pH2AX(24) + 2xSEM ([5]; glyphosate 300 μM): 2.668 foci | pH2AX(24) ([5]; glyphosate 300 μM): 2.3 foci | reference concentration Cref defined by NpH2AX(24 h, Cref)+2σ=2 ([5]; control cell line 1BR3): 100 µM | pH2AX(24) + 2xSEM ([6]; glyphosate 3 μM): 0.928 foci | pH2AX(24) ([6]; glyphosate 3 μM): 0.8 foci | pH2AX(24) + 2xSEM ([6]; glyphosate 10 μM): 1.16 foci | pH2AX(24) ([6]; glyphosate 10 μM): 1 foci | pH2AX(24) + 2xSEM ([6]; glyphosate 30 μM): 1.74 foci | pH2AX(24) ([6]; glyphosate 30 μM): 1.5 foci | pH2AX(24) + 2xSEM ([6]; glyphosate 100 μM): 2.088 foci | pH2AX(24) ([6]; glyphosate 100 μM): 1.8 foci | pH2AX(24) + 2xSEM ([6]; glyphosate 300 μM): 3.48 foci | pH2AX(24) ([6]; glyphosate 300 μM): 3 foci | reference concentration Cref defined by NpH2AX(24 h, Cref)+2σ=2 ([6]; control cell line 149BR): 100 µM | pH2AX ([7]; 3 μM): 1.7 foci | pH2AX ([7]; 10 μM): 1.9 foci | pH2AX ([7]; 30 μM): 4.8 foci | pH2AX ([7]; 100 μM): 6.5 foci | pH2AX ([7]; 300 μM): 8.7 foci | pH2AX(24) + 2xSEM ([7]; glyphosate 3 μM): 1.972 foci | pH2AX(24 h) ([7]; glyphosate 3 μM): 1.7 foci | pH2AX(24) + 2xSEM ([7]; glyphosate 10 μM): 2.088 foci | pH2AX(24 h) ([7]; glyphosate 10 μM): 1.8 foci | pH2AX(24) + 2xSEM ([7]; glyphosate 30 μM): 4.756 foci | pH2AX(24 h) ([7]; glyphosate 30 μM): 4.1 foci | pH2AX(24) + 2xSEM ([7]; glyphosate 100 μM): 6.96 foci | pH2AX(24 h) ([7]; glyphosate 100 μM): 6 foci | pH2AX(24) + 2xSEM ([7]; glyphosate 300 μM): 9.744 foci | pH2AX(24 h) ([7]; glyphosate 300 μM): 8.4 foci | number of pH2AX foci ([7]; glyphosate concentration of 100 μM, 24 h): approximately 7 foci | Micronuclei ([8]; 3 μM): 6 per 100 cells | Micronuclei ([8]; 10 μM): 4 per 100 cells | Micronuclei ([8]; 30 μM): 10 per 100 cells | Micronuclei ([8]; 150 μM): 12 per 100 cells | Micronuclei ([8]; 300 μM): 14 per 100 cells
